Tests used:
Type in all cases: ADME, organism-based
[1] = Biodistribution in rat liver at 15 mins; settings: read-out: Drug uptake
[2] = Biodistribution in rat liver at 60 mins; settings: read-out: Drug uptake
Liver [3] = assay: Biodistribution in rat liver at 15 uci, iv measured at 60 mins; settings: in vivo, 1 h
Liver [4] = assay: Biodistribution in rat liver at 15 uci, iv measured at 15 mins; settings: in vivo, 0.25 h

| tissue uptake at 0.25 h [1] [%ID/g] | tissue uptake at 1 h [2] [%ID/g] | Drug uptake (Liver [3]) [% ID/g] | Drug uptake (Liver [4]) [% ID/g] | Structure (SMILES) |
| --- | --- | --- | --- | --- |
| 1.6 | 1.3 |  |  | CC(C)(C)n1ncc(OCc2ccc(CCCC[18F])cc2)c(Cl)c1=O |
|  |  | 0.9 | 1.4 | CC(C)(C)n1ncc(OCc2ccc(COCCF)cc2)c(Cl)c1=O [FLURPIRIDAZ] |

— ChEMBL document CHEMBL2390945, “Synthesis and characterization of 123I-CMICE-013: a potential SPECT myocardial perfusion imaging agent” (Bioorg Med Chem, 2013)
